For data set [1], the system named is Raw 264.7 cells. The experiment in a line: Measurement of NO production in LPS-stimulated Raw 264.7 cells. As to conditions: for inhibition at 12.5 µM / inhibition at 25 µM / inhibition at 50 µM / inhibition at 100 µM: Mus musculus, RAW264.7, LPS 100 ng/ml, 24 h. Type of data set: cell-based. How it is done:
Raw 264.7 cells were plated in a 96-well cell culture plate (50,000 cells/well). Lipopolysaccharide (LPS) was diluted to 100 ng/ml and the dilution was added to the cell culture media The LPS stimulus was applied for 24 h to induce the activity of the Raw 264.7 cells and supernatants (50 μl each) obtained from the 96-well cell culture plate were plated in a new plate. 50 μl of a sulfanilamide solution was added and the reaction was allowed to proceed for 10 min. 50 μl of a NED solution was added and the reaction was allowed to proceed for 10 min. The amount of NO produced from the cells in the cell culture media was determined by measuring the absorbance at a wavelength of 540 nm.

In data set [2] the test system is Raw 264.7 cells. The experiment in a line: Cell viability measurement (MTS). The format is cell-based. How it is done: Raw 264.7 cells were plated in a 96-well cell culture plate (50,000 cells/well). The cell culture media were removed from the 96-well cell culture plate. 100 μl of MTS reagent (CellTiter 96 AQueous One Solution Cell Proliferation Assay, Promega) was added to each well and the reaction was allowed to proceed at 37° C. for 20 min. After the reaction was finished, the cell viability were determined by measuring the absorbance at a wavelength of 490 nm.

For `CC(=O)Oc1ccccc1C(=O)O` [Aspirin, acetylsalicylic acid (aspirin)], in data set [1], at 12.5 µM the inhibition was 0%; the inhibition (usually the change of the read-out against control, counted positive when it falls) at 25 µM was 0%; at 50 µM the inhibition was 9.29%. The inhibition at 100 µM in data set [1] (100 μM) is 12.4%. In addition, in data set [1] (together with LPS (100 ng/ml)), the “reduction of NO production (in words)” value was “less effective in reducing the production of NO”. Further, in data set [2], the “cell toxicity (cell viability, MTS)” value is “no cell toxicities were observed”.
With `NC1=NCC2c3ccccc3Cc3ccccc3N12` (stereo not drawn) [Epinastine, epinastine], in data set [1] (100 μM, LPS (100 ng/ml)), the “reduction of NO production (in words)” value is “found to reduce the production of NO”. In data set [1], 12.5 µM produced 0% inhibition, the inhibition at 25 µM came to 5.48% and the inhibition at 50 µM was 18.7%. This compound came in with an inhibition at 100 µM in data set [1] (100 μM) of 33.4%. Besides, the “cell toxicity (cell viability, MTS)” value in data set [2] is “no cell toxicities were observed”.
Turning to `O=C(O)c1ccccc1O` [Salicylic acid], in data set [1], the inhibition at 12.5 µM stood at 0%, the inhibition at 25 µM was 1.27% and the inhibition at 50 µM came to 7.18%. The compound further displayed an inhibition at 100 µM in data set [1] (100 μM) of 15.6%. The “reduction of NO production (in words)” value in data set [1] (together with LPS (100 ng/ml)) was “less effective in reducing the production of NO”. Besides, the “cell toxicity (cell viability, MTS)” value in data set [2] is listed as “no cell toxicities were observed”.

The values are drawn from US11396511B2, “Substituted 9,13b-dihydro-1H-dibenzo[c,f]imidazo[1,5-a]azepin-3-ylbenzamides as anti-inflammatory and analgesic agents” (FRONTBIO CO., LTD., priority 2017, dated 2022).
